This is an account of results in the supplement of paper PMC6045584.

Compound in one assay: C[C@@H](Oc1cc(-c2cnn(C3CCNCC3)c2)cnc1N)c1c(Cl)ccc(F)c1Cl [CRIZOTINIB]
In words: surviving fraction relative to DMSO-only wells; higher = less growth inhibition. Conditions: exposure time: 5 days. A digest of the protocol:
(§1)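 In 384-well plates, 250–500 log-phase tumour cells per well were given 24 hours before five days of continuous exposure to inhibitors at 0.5, 1, 5, 10, 50, 100, 500 and 1000 nM. Surviving fraction is luminescence from CellTiter-Glo, normalised to the median of wells containing DMSO alone. Reading took place after 10 minutes at room temperature.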

Compound in the next assay: CN1CCN(c2nc(C3=C(c4c[nH]c5ccccc45)C(=O)NC3=O)c3ccccc3n2)CC1 [SOTRASTAURIN/AEB071]
The assay is described as above. The settings on record: exposure time: 5 days. A digest of the protocol:
as §1

± gives the standard deviation of the averaged measurements.

Regarding HCC1395 BREAST, the surviving fraction in the assay with CRIZOTINIB (0.5 nM) turned out to be 1.06 ± 0.18; with CRIZOTINIB (1 nM), 1.28 ± 0.025; with CRIZOTINIB (5 nM), 1.33 ± 0.061; with CRIZOTINIB (10 nM), 1.44 ± 0.15; in the assay with CRIZOTINIB (50 nM), 1.29 ± 0.18; in the assay with CRIZOTINIB (100 nM), 1.28 ± 0.018. Further, the surviving fraction with CRIZOTINIB (500 nM) was 1.21 ± 0.14; with CRIZOTINIB (1000 nM), 1.21 ± 0.061; in the assay with SOTRASTAURIN/AEB071 (0.5 nM), 0.996 ± 0.018; with SOTRASTAURIN/AEB071 (1 nM) it was 1.09 ± 0.058; with SOTRASTAURIN/AEB071 (5 nM), 1.16 ± 0.12; with SOTRASTAURIN/AEB071 (10 nM) it was 1.12 ± 0.15. The surviving fraction with SOTRASTAURIN/AEB071 (50 nM) was 1.19 ± 0.13; in the assay with SOTRASTAURIN/AEB071 (100 nM) it was 1.1 ± 0.1; with SOTRASTAURIN/AEB071 (500 nM), 0.885 ± 0.14; with SOTRASTAURIN/AEB071 (1000 nM), 0.969 ± 0.075.
Consider NOS1 BONE, for which the surviving fraction with CRIZOTINIB (0.5 nM) came out at 1.03 ± 0.12; with CRIZOTINIB (1 nM), 1.13 ± 0.07; with CRIZOTINIB (5 nM), 1.11 ± 0.044; with CRIZOTINIB (10 nM), 1.23 ± 0.2; with CRIZOTINIB (50 nM), 1.11 ± 0.043; with CRIZOTINIB (100 nM), 1.69 ± 0.86. Moreover, the surviving fraction with CRIZOTINIB (500 nM) came out at 0.69 ± 0.036; with CRIZOTINIB (1000 nM) it was 0.484 ± 0.051; with SOTRASTAURIN/AEB071 (0.5 nM), 1.05 ± 0.087; with SOTRASTAURIN/AEB071 (1 nM), 1 ± 0.084; with SOTRASTAURIN/AEB071 (5 nM), 1.14 ± 0.12; with SOTRASTAURIN/AEB071 (10 nM), 1.08 ± 0.071. Also, the surviving fraction with SOTRASTAURIN/AEB071 (50 nM) worked out at 0.974 ± 0.095; in the assay with SOTRASTAURIN/AEB071 (100 nM) it was 1 ± 0.037; with SOTRASTAURIN/AEB071 (500 nM), 0.899 ± 0.035; with SOTRASTAURIN/AEB071 (1000 nM) it was 1 ± 0.037.
For the test system RDES SOFT TISSUE, the surviving fraction with CRIZOTINIB (1 nM) came to 1.24 ± 0.083; with CRIZOTINIB (10 nM) it was 1.15 ± 0.11; with CRIZOTINIB (100 nM), 1.16 ± 0.1; with CRIZOTINIB (500 nM) it was 1.44 ± 0.12; with CRIZOTINIB (1000 nM), 0.194 ± 0.047; with SOTRASTAURIN/AEB071 (0.5 nM), 1.16 ± 0.061. The surviving fraction in the assay with SOTRASTAURIN/AEB071 (1 nM) worked out at 1.22 ± 0.13; with SOTRASTAURIN/AEB071 (5 nM), 1.04 ± 0.13; with SOTRASTAURIN/AEB071 (10 nM), 1.05 ± 0.12; in the assay with SOTRASTAURIN/AEB071 (50 nM), 0.953 ± 0.017; with SOTRASTAURIN/AEB071 (100 nM), 0.871 ± 0.056; with SOTRASTAURIN/AEB071 (500 nM), 0.987 ± 0.075. The surviving fraction in the assay with SOTRASTAURIN/AEB071 (1000 nM) came out at 1.01 ± 0.13.
Turning to MDAMB453 BREAST, the surviving fraction was 1.1 ± 0.049 in the assay with CRIZOTINIB (0.5 nM); 1.06 ± 0.064 in the assay with CRIZOTINIB (1 nM); 1.17 ± 0.079 with CRIZOTINIB (5 nM); 1.14 ± 0.12 with CRIZOTINIB (10 nM); 1.11 ± 0.039 with CRIZOTINIB (100 nM); 0.844 ± 0.042 in the assay with CRIZOTINIB (500 nM). Moreover, the surviving fraction worked out at 0.803 ± 0.043 with CRIZOTINIB (1000 nM); 0.996 ± 0.053 with SOTRASTAURIN/AEB071 (0.5 nM); 0.971 ± 0.081 in the assay with SOTRASTAURIN/AEB071 (1 nM); 1.01 ± 0.058 with SOTRASTAURIN/AEB071 (5 nM); 1 ± 0.076 in the assay with SOTRASTAURIN/AEB071 (10 nM); 0.915 ± 0.048 in the assay with SOTRASTAURIN/AEB071 (50 nM). For the same test system, the surviving fraction in the assay with SOTRASTAURIN/AEB071 (100 nM) came to 0.969 ± 0.1; with SOTRASTAURIN/AEB071 (500 nM) it was 0.951 ± 0.014; with SOTRASTAURIN/AEB071 (1000 nM) it was 0.895 ± 0.05.
Regarding NY BONE, the surviving fraction was 1.07 ± 0.052 in the assay with CRIZOTINIB (0.5 nM); 1.06 ± 0.047 with CRIZOTINIB (1 nM); 1.12 ± 0.041 with CRIZOTINIB (5 nM); 1.09 ± 0.038 in the assay with CRIZOTINIB (10 nM); 1.08 ± 0.035 with CRIZOTINIB (50 nM); 1.02 ± 0.021 with CRIZOTINIB (100 nM). Moreover, the surviving fraction in the assay with CRIZOTINIB (500 nM) was found to be 0.883 ± 0.026; in the assay with CRIZOTINIB (1000 nM), 0.577 ± 0.018; in the assay with SOTRASTAURIN/AEB071 (0.5 nM) it was 0.99 ± 0.041; with SOTRASTAURIN/AEB071 (1 nM) it was 0.971 ± 0.023; in the assay with SOTRASTAURIN/AEB071 (5 nM) it was 1.08 ± 0.002; with SOTRASTAURIN/AEB071 (10 nM), 1.03 ± 0.048. The surviving fraction with SOTRASTAURIN/AEB071 (50 nM) stood at 1.11 ± 0.022; with SOTRASTAURIN/AEB071 (100 nM), 1.09 ± 0.043; with SOTRASTAURIN/AEB071 (500 nM), 1.07 ± 0.051; in the assay with SOTRASTAURIN/AEB071 (1000 nM), 1.106 ± 0.0067.
For the test system HOS BONE, the surviving fraction in the assay with CRIZOTINIB (0.5 nM) is 1.03 ± 0.026; with CRIZOTINIB (5 nM), 1.05 ± 0.017; in the assay with CRIZOTINIB (50 nM), 1.04 ± 0.025; in the assay with CRIZOTINIB (100 nM) it was 1.09 ± 0.022; in the assay with CRIZOTINIB (500 nM) it was 0.685 ± 0.041; in the assay with CRIZOTINIB (1000 nM), 0.575 ± 0.014. For the same test system, the surviving fraction with SOTRASTAURIN/AEB071 (0.5 nM) is 1.021 ± 0.0061; with SOTRASTAURIN/AEB071 (1 nM) it was 1.01 ± 0.014; in the assay with SOTRASTAURIN/AEB071 (5 nM) it was 1.04 ± 0.023; in the assay with SOTRASTAURIN/AEB071 (10 nM), 1.014 ± 0.008; with SOTRASTAURIN/AEB071 (50 nM), 1.05 ± 0.014; with SOTRASTAURIN/AEB071 (100 nM), 1.03 ± 0.013. In addition, the surviving fraction with SOTRASTAURIN/AEB071 (500 nM) was determined as 1.02 ± 0.018; in the assay with SOTRASTAURIN/AEB071 (1000 nM), 0.974 ± 0.016.
CAL51 BREAST: the surviving fraction in the assay with CRIZOTINIB (0.5 nM) was 0.981 ± 0.081; in the assay with CRIZOTINIB (1 nM), 1.03 ± 0.034; with CRIZOTINIB (5 nM) it was 1.03 ± 0.012; with CRIZOTINIB (10 nM), 1.07 ± 0.052; with CRIZOTINIB (50 nM) it was 1.01 ± 0.05; with CRIZOTINIB (100 nM), 1.05 ± 0.046. In addition, the surviving fraction was determined as 0.232 ± 0.024 with CRIZOTINIB (500 nM); 0.213 ± 0.012 with CRIZOTINIB (1000 nM); 0.993 ± 0.025 with SOTRASTAURIN/AEB071 (0.5 nM); 0.969 ± 0.071 in the assay with SOTRASTAURIN/AEB071 (1 nM); 0.933 ± 0.031 with SOTRASTAURIN/AEB071 (5 nM); 0.962 ± 0.05 in the assay with SOTRASTAURIN/AEB071 (10 nM). The surviving fraction is 0.968 ± 0.077 in the assay with SOTRASTAURIN/AEB071 (50 nM), 1.04 ± 0.04 in the assay with SOTRASTAURIN/AEB071 (100 nM), 0.938 ± 0.077 with SOTRASTAURIN/AEB071 (500 nM) and 0.824 ± 0.05 with SOTRASTAURIN/AEB071 (1000 nM).
Take MDAMB134 BREAST: the surviving fraction is 1.01 ± 0.028 in the assay with CRIZOTINIB (1 nM); 0.93 ± 0.068 in the assay with CRIZOTINIB (5 nM); 1.06 ± 0.04 in the assay with CRIZOTINIB (10 nM); 0.91 ± 0.0085 with CRIZOTINIB (50 nM); 1.05 ± 0.019 with CRIZOTINIB (500 nM); 0.947 ± 0.026 with CRIZOTINIB (1000 nM). Besides, the surviving fraction with SOTRASTAURIN/AEB071 (0.5 nM) worked out at 0.907 ± 0.16; in the assay with SOTRASTAURIN/AEB071 (1 nM) it was 0.994 ± 0.19; with SOTRASTAURIN/AEB071 (5 nM) it was 0.752 ± 0.12; with SOTRASTAURIN/AEB071 (10 nM), 0.9 ± 0.011; in the assay with SOTRASTAURIN/AEB071 (50 nM), 0.913 ± 0.26; in the assay with SOTRASTAURIN/AEB071 (100 nM), 0.663 ± 0.12. Besides, the figures for the surviving fraction in the assay with SOTRASTAURIN/AEB071 (500 nM) and with SOTRASTAURIN/AEB071 (1000 nM) were 0.724 ± 0.1 and 0.74 ± 0.0085, respectively.
KPD BONE: the surviving fraction came out at 0.936 ± 0.05 in the assay with CRIZOTINIB (0.5 nM); 1.01 ± 0.038 with CRIZOTINIB (1 nM); 1.16 ± 0.03 in the assay with CRIZOTINIB (10 nM); 0.245 ± 0.011 in the assay with CRIZOTINIB (1000 nM); 0.967 ± 0.054 in the assay with SOTRASTAURIN/AEB071 (0.5 nM); 0.974 ± 0.034 with SOTRASTAURIN/AEB071 (1 nM). Besides, the surviving fraction in the assay with SOTRASTAURIN/AEB071 (5 nM) stood at 1.08 ± 0.062; with SOTRASTAURIN/AEB071 (10 nM) it was 1.04 ± 0.032; in the assay with SOTRASTAURIN/AEB071 (50 nM), 1.01 ± 0.031; with SOTRASTAURIN/AEB071 (100 nM), 1.08 ± 0.019; with SOTRASTAURIN/AEB071 (500 nM), 1.04 ± 0.043; in the assay with SOTRASTAURIN/AEB071 (1000 nM), 1.07 ± 0.059.
